# Earlier results in patent US7238683B2, “Fused phenylalanine derivatives as dipeptidyl peptidase-iv inhibitors for the treatment or prevention of diabetes” (Merck & Co., Inc., priority 2003, dated 2007).
# Columns and labels:
# DP-IV = target: T1, DP-IV (Homo sapiens, UniProt P27487)
# T1 construct: GRP is rapidly degraded in plasma to GRF[3-44]; from tissue
# hematopoiesis = details: mouse, cyclophosphamide-induced neutropenia
# T1 sequence (P27487 whole entry): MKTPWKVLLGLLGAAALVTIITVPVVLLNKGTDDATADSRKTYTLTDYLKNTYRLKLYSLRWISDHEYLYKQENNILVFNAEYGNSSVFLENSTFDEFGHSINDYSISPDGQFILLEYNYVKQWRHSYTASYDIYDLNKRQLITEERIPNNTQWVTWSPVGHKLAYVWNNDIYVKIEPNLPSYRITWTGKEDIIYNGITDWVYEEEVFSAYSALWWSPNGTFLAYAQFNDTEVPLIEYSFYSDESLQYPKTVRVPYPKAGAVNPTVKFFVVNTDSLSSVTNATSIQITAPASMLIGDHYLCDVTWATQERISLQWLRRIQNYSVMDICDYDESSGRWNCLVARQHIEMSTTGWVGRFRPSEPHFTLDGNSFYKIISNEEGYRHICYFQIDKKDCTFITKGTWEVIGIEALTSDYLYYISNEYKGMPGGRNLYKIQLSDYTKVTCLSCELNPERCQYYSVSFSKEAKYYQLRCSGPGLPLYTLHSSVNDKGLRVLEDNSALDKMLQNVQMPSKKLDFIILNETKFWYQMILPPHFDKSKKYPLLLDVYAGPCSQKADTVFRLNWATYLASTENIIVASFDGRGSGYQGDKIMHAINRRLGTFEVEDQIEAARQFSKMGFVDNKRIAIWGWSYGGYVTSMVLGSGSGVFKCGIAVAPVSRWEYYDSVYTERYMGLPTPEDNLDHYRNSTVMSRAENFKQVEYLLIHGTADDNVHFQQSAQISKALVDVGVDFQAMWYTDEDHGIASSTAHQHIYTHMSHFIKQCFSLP
SMILES,degradation of GRF in plasma to GRF[3-44] (DP-IV),effect on hematopoiesis (hematopoiesis)
CC[C@H](C)[C@H](N)C(=O)N1CCC[C@H]1C(=O)N[C@H](C(=O)O)[C@@H](C)CC [diprotin A],prevented,
CC(C)[C@H](N)C(=O)N1CCC[C@H]1B(O)O [Val-Boro-Pro],,stimulated hematopoiesis
